The target of data set [1] is T1, Mushroom tyrosinase (Agaricus bisporus) (UniProt O42713+Q00024+C7FF04+C7FF05). The data set is described as follows: Inhibition of immobilized mushroom tyrosinase diphenolase activity assessed as reduction in caffeic acid oxidation at 50 uM by amperometric tyrosinase biosensor method.
The target of data set [2] is T1, Mushroom tyrosinase (Agaricus bisporus). Briefly: Inhibition of mushroom tyrosinase monophenolase activity assessed as reduction in lag time of enzymatic reaction at 50 uM using caffeic acid as substrate by amperometric tyrosinase biosensor method.
Data set [3] has the same target. The data set is described as follows: Inhibition of mushroom tyrosinase assessed as reduction in caffeic acid oxidation measured after 6 mins by UV-Vis spectrophotometric method.
Data set [4] shares this target. The data set is described as follows: Inhibition of mushroom tyrosinase diphenolase activity assessed as reduction in caffeic acid oxidation measured after 6 mins by UV-Vis spectrophotometric method.
A short description of data set [5]: Aqueous solubility of the compound. In kind it is physicochemical. Particulars: buffer.
Another data set concerns Lymphocyte. Briefly: Cytotoxicity against human lymphocytes. Format: cell-based.

Activity calls are given as the source filed them. No cut-off for these calls is given here.

As a reminder, the inhibition is the relative decrease from the control value, in per cent. As for `COc1cc(C)c(-c2cc(O)c(OC)cc2C)cc1O`, the inhibition result in data set [1] is “Active”.

Regarding `Oc1ccc2c(c1-c1c(O)ccc3c1OCO3)OCO2`, the inhibition entry in data set [2] and in data set [3] was “Active” each time. Further, the inhibition in data set [1] amounted to 82%.

As for `Oc1ccccc1-c1ccccc1O`, the inhibition was 10% in data set [3] and 10 to 20% in data set [1].

On to `Oc1ccc(-c2ccc(O)c(O)c2)cc1O`, for which the inhibition result in data set [3] and in data set [1] was “Active” throughout. Also, in data set [4], the inhibition is 60%. The solubility entry in data set [5] was “Soluble”.

Take `Oc1ccc(-c2ccc(O)cc2)cc1`: the inhibition entry in data set [3] and in data set [1] was “Active” throughout.

Regarding `COc1cc(O)cc(-c2cc(O)cc(OC)c2OC)c1OC`, the inhibition result in data set [3] and in data set [1] was “Active” throughout.

Broadly, the IC50 is the concentration needed to halve the response being measured. A high value points to a need for much substance. Turning to `C=CCc1cc(-c2ccc(O)c(CC=C)c2)ccc1O`, the inhibition result in data set [3] and in data set [1] was “Active” in each case. The molecule also gave an IC50 with Lymphocyte below 100 µM.

`Oc1cccc(O)c1-c1c(O)cccc1O`: the inhibition entry in data set [3] and in data set [1] was “Active” each time.

Values taken from ChEMBL document CHEMBL4002596, “Hydroxylated biphenyls as tyrosinase inhibitor: A spectrophotometric and electrochemical study” (Eur J Med Chem, 2017).
